{"source": "patent US10294202B2", "about": "“Pyrrolidinones as herbicides” (FMC Corporation, priority 2013, dated 2019)", "key": {"nutsedge, yellow": {"tested_on": "nutsedge, yellow", "test": "Test C pre-/postemergence herbicide test", "format": "in vivo, Cyperus esculentus", "summary_of_the_method": "(§1)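 Plants grown and held in a greenhouse for 13 to 15 days post-spray, then rated 0–100 by visual comparison with controls. Pre treatments targeted seeds in loam and sand; post treatments targeted 1- to 4-leaf plants in peat-based potting medium.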"}, "corn [1]": {"tested_on": "corn", "test": "Test A pre-/postemergence herbicide test", "format": "in vivo, Zea mays", "settings": "Zea mays, 240 h, 1000 g ai/ha", "summary_of_the_method": "(§2)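 Approximately 10 days after treatment in the greenhouse, plants were compared with untreated controls and given a 0–100 visual injury rating. Applications: preemergence directed soil spray; postemergence on 2–10 cm plants at the one- to two-leaf stage.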"}, "morningglory": {"tested_on": "morningglory", "test": "Test C pre-/postemergence herbicide test", "format": "in vivo, Ipomoea coccinea", "summary_of_the_method": "as §1"}, "ragweed": {"tested_on": "ragweed", "test": "Test C pre-/postemergence herbicide test", "format": "in vivo, Ambrosia elatior", "summary_of_the_method": "as §1"}, "corn [2]": {"tested_on": "corn", "test": "Test C pre-/postemergence herbicide test", "format": "in vivo, Zea mays", "summary_of_the_method": "as §1"}, "johnsongrass": {"tested_on": "johnsongrass", "test": "Test C pre-/postemergence herbicide test", "format": "in vivo, Sorghum halepense", "summary_of_the_method": "as §1"}, "lambsquarters": {"tested_on": "lambsquarters", "test": "Test C pre-/postemergence herbicide test", "format": "in vivo, Chenopodium album", "source_text": "Seeds of plant species selected from blackgrass (Alopecurus myosuroides), ryegrass, Italian (Italian ryegrass, Lolium multiflorum), wheat (winter wheat, Triticum aestivum), galium (catchweed bedstraw, Galium aparine), corn (Zea mays), crabgrass, large (large crabgrass, Digitaria sanguinalis), foxtail, giant (giant foxtail, Setaria faberii), johnsongrass (Sorghum halepense), lambsquarters (Chenopodium album), morningglory (Ipomoea coccinea), nutsedge, yellow (yellow nutsedge, Cyperus esculentus), pigweed (Amaranthus retroflexus), ragweed (common ragweed, Ambrosia elatior), soybean (Glycine max), barnyardgrass (Echinochloa crus-galli), oilseed rape (Brassica napus), waterhemp (common waterhemp, Amaranthus rudis), kochia (Kochia scoparia), oat, wild (wild oat, Avena fatua), surinam grass (Brachiaria decumbens), foxtail, green (green foxtail, Setaria viridis), goosegrass (Eleusine indica), bromegrass, downy (downy bromegrass, Bromus tectorum), nightshade (eastern black nightshade, Solanum ptycanthum), cocklebur (common cocklebur, Xanthium strumarium), cupgrass, woolly (woolly cupgrass, Eriochloa villosa), bermudagrass (Cynodon dactylon), sunflower, (common oilseed sunflower, Helianthus annuus), Russian thistle (Salsola kali) and velvetleaf (Abutilon theophrasti) were planted into a blend of loam soil and sand and treated preemergence with test chemicals formulated in a non-phytotoxic solvent mixture which included a surfactant. At the same time, plants selected from these crop and weed species and also barley (winter barley, Hordeum vulgare), […]), chickweed (common chickweed, Stellaria media), deadnettle (henbit deadnettle, Lamium amplexicaule), and canarygrass (littleseed canarygrass, Phalaris minor) were planted in pots containing Redi-Earth® planting medium (Scotts Company, 14111 Scottslawn Road, Marysville, Ohio 43041) comprising spaghnum peat moss, vermiculite, wetting agent and starter nutrients and treated with postemergence applications of test chemicals formulated in the same manner. Plants ranged in height from 2 to 18 cm (1- to 4-leaf stage) for postemergence treatments. Treated plants and controls were maintained in a greenhouse for 13 to 15 days, after which time all species were compared to controls and visually evaluated. Plant response ratings, summarized in Table C, are based on a scale of 0 to 100 where 0 is no effect and 100 is complete control. A dash (-) response means no test result."}, "ryegrass, Italian": {"tested_on": "ryegrass, Italian", "test": "Test C pre-/postemergence herbicide test", "format": "in vivo, Lolium multiflorum", "summary_of_the_method": "as §1"}, "pigweed": {"tested_on": "pigweed", "test": "Test A pre-/postemergence herbicide test", "format": "in vivo, Amaranthus retroflexus", "settings": "Amaranthus retroflexus, 240 h, 1000 g ai/ha, read-out: Plant response rating, Pigweed", "summary_of_the_method": "as §2"}, "wheat": {"tested_on": "wheat", "test": "Test A pre-/postemergence herbicide test", "format": "in vivo, Triticum aestivum", "settings": "Triticum aestivum, 240 h, 1000 g ai/ha, read-out: Plant response rating, Wheat", "summary_of_the_method": "as §2"}, "[3]": {"settings": "Postemergence, 31 g ai/ha, scale 0 (no effect) to 100 (complete control)"}, "[4]": {"settings": "Postemergence, 62 g ai/ha, scale 0 to 100 (0 no effect, 100 complete control)"}, "[5]": {"settings": "Postemergence, 125 g ai/ha, scale 0 to 100 (0 no effect, 100 complete control)"}, "[6]": {"settings": "Postemergence, 250 g ai/ha, scale 0 to 100 (0 no effect, 100 complete control)"}, "[7]": {"settings": "Preemergence, 62 g ai/ha, scale 0 to 100"}, "[8]": {"settings": "Preemergence, 125 g ai/ha, scale 0 to 100 (0 no effect, 100 complete control)"}, "[9]": {"settings": "post-emergence, Postemergence, 0 to 100 scale (0 no effect, 100 complete control)"}, "[10]": {"settings": "pre-emergence, Preemergence, visual rating on 0 to 100 scale (0 no effect, 100 complete control), approx. 10 days"}}, "note": "Read-outs that look alike come from different tables or passages of the source.", "data": [{"smiles": "O=C1NCC(c2ccc(F)c(F)c2)C1C(=O)Nc1cccc(F)c1F", "note": "(stereo not shown) [Compound 17, N-(2,3-difluorophenyl)-4-(3,4-difluorophenyl)-2-oxo-3-pyrrolidinecarboxamide]", "values": [{"measurement": "Plant response rating, Nutsedge, Yellow", "setting": "nutsedge, yellow; [3]", "result": 0}, {"measurement": "Plant response rating, Nutsedge, Yellow", "setting": "nutsedge, yellow; [4]", "result": 0}, {"measurement": "Plant response rating, Nutsedge, Yellow", "setting": "nutsedge, yellow; [5]", "result": 0}, {"measurement": "Plant response rating, Nutsedge, Yellow", "setting": "nutsedge, yellow; [6]", "result": 0}, {"measurement": "Plant response rating, Nutsedge, Yellow", "setting": "nutsedge, yellow; [7]", "result": 0}, {"measurement": "Plant response rating, Nutsedge, Yellow", "setting": "nutsedge, yellow; [8]", "result": 0}, {"measurement": "Corn plant response rating (crop injury, 0 = no effect, 100 = complete kill) at 1000 g/ha", "setting": "corn [1]; [9]", "result": 60, "unit": "%"}, {"measurement": "Corn plant response rating (crop injury, 0 = no effect, 100 = complete kill) at 1000 g/ha", "setting": "corn [1]; [10]", "result": 60, "unit": "%"}, {"measurement": "Plant response rating, Morningglory", "setting": "morningglory; [3]", "result": 0}, {"measurement": "Plant response rating, Morningglory", "setting": "morningglory; [4]", "result": 0}, {"measurement": "Plant response rating, Morningglory", "setting": "morningglory; [5]", "result": 0}, {"measurement": "Plant response rating, Morningglory", "setting": "morningglory; [6]", "result": 0}, {"measurement": "Plant response rating, Morningglory", "setting": "morningglory; [7]", "result": 0}, {"measurement": "Plant response rating, Ragweed", "setting": "ragweed; [3]", "result": 0}, {"measurement": "Plant response rating, Ragweed", "setting": "ragweed; [4]", "result": 0}, {"measurement": "Plant response rating, Ragweed", "setting": "ragweed; [5]", "result": 0}, {"measurement": "Plant response rating, Ragweed", "setting": "ragweed; [6]", "result": 0}, {"measurement": "Plant response rating, Ragweed", "setting": "ragweed; [7]", "result": 0}, {"measurement": "Plant response rating, Ragweed", "setting": "ragweed; [8]", "result": 30}, {"measurement": "Plant response rating, Corn", "setting": "corn [2]; [3]", "result": 0}, {"measurement": "Plant response rating, Corn", "setting": "corn [2]; [4]", "result": 0}, {"measurement": "Plant response rating, Corn", "setting": "corn [2]; [5]", "result": 0}, {"measurement": "Plant response rating, Corn", "setting": "corn [2]; [6]", "result": 0}, {"measurement": "Plant response rating, Corn", "setting": "corn [2]; [7]", "result": 0}, {"measurement": "Plant response rating, Corn", "setting": "corn [2]; [8]", "result": 30}, {"measurement": "Corn plant response rating", "setting": "corn [2]; Preemergence, 31 g ai/ha, scale 0 to 100 (0 no effect, 100 complete control)", "result": 0}, {"measurement": "Plant response rating, Corn", "setting": "corn [2]; Preemergence, 250 g ai/ha, scale 0 to 100 (0 no effect, 100 complete control)", "result": 70}, {"measurement": "Plant response rating, Johnsongrass", "setting": "johnsongrass; [3]", "result": 0}, {"measurement": "Plant response rating, Johnsongrass", "setting": "johnsongrass; [4]", "result": 0}, {"measurement": "Plant response rating, Johnsongrass", "setting": "johnsongrass; [5]", "result": 0}, {"measurement": "Plant response rating, Johnsongrass", "setting": "johnsongrass; [6]", "result": 0}, {"measurement": "Plant response rating, Johnsongrass", "setting": "johnsongrass; [7]", "result": 5}, {"measurement": "Plant response rating, Johnsongrass", "setting": "johnsongrass; [8]", "result": 65}, {"measurement": "Plant response rating, Lambsquarters", "setting": "lambsquarters; [3]", "result": 0}, {"measurement": "Plant response rating, Lambsquarters", "setting": "lambsquarters; [4]", "result": 0}, {"measurement": "Plant response rating, Lambsquarters", "setting": "lambsquarters; [5]", "result": 0}, {"measurement": "Plant response rating, Lambsquarters", "setting": "lambsquarters; [6]", "result": 0}, {"measurement": "Plant response rating, Lambsquarters", "setting": "lambsquarters; [7]", "result": 60}, {"measurement": "Plant response rating, Lambsquarters", "setting": "lambsquarters; [8]", "result": 60}, {"measurement": "Plant response rating, Ryegrass, Italian", "setting": "ryegrass, Italian; [3]", "result": 0}, {"measurement": "Plant response rating, Ryegrass, Italian", "setting": "ryegrass, Italian; [4]", "result": 0}, {"measurement": "Plant response rating, Ryegrass, Italian", "setting": "ryegrass, Italian; [5]", "result": 0}, {"measurement": "Plant response rating, Ryegrass, Italian", "setting": "ryegrass, Italian; [6]", "result": 5}, {"measurement": "Plant response rating, Ryegrass, Italian", "setting": "ryegrass, Italian; [7]", "result": 5}, {"measurement": "Plant response rating, Ryegrass, Italian", "setting": "ryegrass, Italian; [8]", "result": 35}, {"measurement": "pest or weed control at 1000 g/ha", "setting": "pigweed; [9]", "result": 40, "unit": "%"}, {"measurement": "pest or weed control at 1000 g/ha", "setting": "pigweed; [10]", "result": 50, "unit": "%"}, {"measurement": "plant injury at 1000 g/ha", "setting": "wheat; [9]", "result": 60, "unit": "%"}, {"measurement": "plant injury at 1000 g/ha", "setting": "wheat; [10]", "result": 70, "unit": "%"}]}]}
